Assay results taken from EP2583662A1, “Composition comprising a meroterpen to manage oily skin with tendency to develop acne” (priority 2011, dated 2013).

Columns and labels:
[1] = test system: Propionibacterium acnes CIP A179; assay: Minimal inhibitory concentration (CMI) in solid medium against Propionibacterium acnes; format: cell-based; settings: single active; Wilkins-Chalgren agar, 18h at 37°C, anaerobic
Method: La détermination de la CMI des actifs à évaluer vis-à-vis de Propionibacterium acnes consiste, dans un premier temps, à préparer une gamme comportant neuf dilutions des actifs à tester. Chaque dilution est ensuite déposée en boîte de Pétri puis recouverte de gélose Wilkins-Chalgren. Après homogénéisation puis solidification, chacune des boîtes est inoculée avec une suspension calibrée (10^7 UFC/mL) de P acnes (dépôt par strie), puis les boîtes sont incubées 18h à 37°C en anaérobiose. La souche utilisée est le Propionibacterium acnes CIP A179 (origine = glande sébacée (1946), source CRBIP, Institut Pasteur, Paris).
La préparation des géloses s'effectue à J1 en ajoutant 2 mL d'eau osmosée stérile dans une boîte de Pétri (témoin négatif) ou 2 ml de chaque dilution des gammes d'actifs 10 fois concentré et 18 mL de milieu gélosé. Après solidification à température ambiante, les boites sont séchées 30 min à 37°C puis ensemencées avec la suspension bactérienne calibrée (10^7 UFC/mL) à l'aide d'une ose calibrée de 10 µL permettant de réaliser un dépôt correspondant à environ 10^4 UFC).
La lecture des boites est effectuée après 18 heures de culture à 37°C permettant de déterminer la CMI correspondant à la plus faible concentration d'actif(s) qui inhibe toute culture visible de P acnes. La présence de 1 à 3 colonies n'est pas prise en considération.
Les produits évalués sont le S (Sytenol®A, Sytheon), Z (Zinc gluconate, Azelis), seuls et les associations S + M (mannitol, IMCD/SPCI) + G (extrait glycolique de Ginkgo biloba, Greentech) et S + M + G + Z.
Le Sytenol®A qui présente un caractère lipophile est dilué dans le DMSO (solution mère à 10%) avant d'être redilué dans l'eau osmosée. Le zinc, le mannitol et l'extrait de Ginkgo sont directement dilués dans l'eau osmosée.
Les essais ont également compris des contrôles en présence du solvant DMSO ayant servi à la solubilisation de S dans l'eau.

[2] = Protection of squalene against H2O2-induced oxidation (GC-MS assay of remaining squalene); settings: for Indice de protection (%): squalene + H2O2 for 1 hour
Method: Le but de l'étude est d'évaluer les effets d'un méroterpène, en l'occurrence le Sytenol®A, sur l'oxydation du squalène induite par du peroxyde d'hydrogène (H2O2).
Le squalène (Sigma, St Quentin Fallavier) est mis en contact avec une quantité définie de peroxyde d'hydrogène pendant 1 heure pour induire son oxydation, en présence ou non du Sytenol®A à 0.1%, 0.25% ou 0.5% (P/V). Un contrôle est réalisé avec un anti-oxydant lipophile de référence, la vitamine E, testée à 0,16% (3,8 mM), correspondant à une concentration équimolaire de Sytenol®A à 0,1%.
A l'issue de l'oxydation, une étape d'extraction est réalisée, puis les échantillons sont analysés par chromatographie en phase gazeuse couplée à une analyse par spectrométrie de masse (GC-MS). Le squalène est dosé grâce à une gamme étalon (10 µg/ml à 2500 µg/ml). La quantité de squalène oxydée est déduite des dosages du squalène. Plus les quantités de squalène dosées sont importantes, moins il a été oxydé et inversement.

Zinc gluconate
CMI [1]: 0.12%

C=C[C@@](C)(/C=C/c1ccc(O)cc1)CCC=C(C)C [Sytenol®A, bakuchiol]
fois plus efficace que la vitamine E en termes de protection de l'oxydation du squalène ([2]; equimolar concentration of 3,8 mM): 2 fois | Indice de protection (%) ([2]; tested at 0.1% (3.9mM)): 30.02% | Indice de protection (%) ([2]; tested at 0.25% (9.75 mM)): 37.12%

vitamine E
Indice de protection (%) ([2]; tested at 0.16% (3.8mM)): 15.17%

O=C(OOC(=O)c1ccccc1)c1ccccc1 [Peroxyde de Benzoyle, peroxyde de benzoyle]
CMI [1]: 0.008%
